Assay results: publication PMC5738360, “Engineering cell sensing and responses using a GPCR-coupled CRISPR-Cas system” (Nature Communications, 2017)

Legend:
Assay in all cases: ChaCha beta-arrestin/TEV-release GFP reporter in HEK293T cells
Type in all cases: cell-based
[1] = molecular target: T1, kappa opioid receptor DREADD (KORD) (Homo sapiens, UniProt P41145, D138N)
T1 construct: gene OPRK1; KORD-V2-TEVp; with ARRB2 (ARRB2-TCS-dCas9-VPR)

[2] = molecular target: T2, LPAR1 (Homo sapiens, UniProt Q92633)
T2 construct: LPAR1-V2-TEVp; with ARRB2 (ARRB2-TCS-dCas9-VPR)

[3] = molecular target: T3, TRHR (Homo sapiens, UniProt P34981)
T3 construct: TRHR-V2-TEVp; with ARRB2 (ARRB2-TCS-dCas9-VPR)
T3 sequence (P34981 whole entry): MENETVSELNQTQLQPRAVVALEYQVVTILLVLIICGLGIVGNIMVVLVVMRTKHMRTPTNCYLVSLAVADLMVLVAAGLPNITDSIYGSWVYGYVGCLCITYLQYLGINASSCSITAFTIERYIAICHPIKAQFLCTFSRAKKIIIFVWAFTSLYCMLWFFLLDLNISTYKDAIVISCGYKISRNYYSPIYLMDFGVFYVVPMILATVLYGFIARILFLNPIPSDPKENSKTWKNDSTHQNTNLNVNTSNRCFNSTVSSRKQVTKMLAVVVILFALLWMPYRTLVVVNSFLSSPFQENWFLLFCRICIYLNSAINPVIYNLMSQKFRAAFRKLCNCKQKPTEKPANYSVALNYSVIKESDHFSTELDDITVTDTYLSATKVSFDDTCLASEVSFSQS
T3 sequence (P32121 whole entry partner): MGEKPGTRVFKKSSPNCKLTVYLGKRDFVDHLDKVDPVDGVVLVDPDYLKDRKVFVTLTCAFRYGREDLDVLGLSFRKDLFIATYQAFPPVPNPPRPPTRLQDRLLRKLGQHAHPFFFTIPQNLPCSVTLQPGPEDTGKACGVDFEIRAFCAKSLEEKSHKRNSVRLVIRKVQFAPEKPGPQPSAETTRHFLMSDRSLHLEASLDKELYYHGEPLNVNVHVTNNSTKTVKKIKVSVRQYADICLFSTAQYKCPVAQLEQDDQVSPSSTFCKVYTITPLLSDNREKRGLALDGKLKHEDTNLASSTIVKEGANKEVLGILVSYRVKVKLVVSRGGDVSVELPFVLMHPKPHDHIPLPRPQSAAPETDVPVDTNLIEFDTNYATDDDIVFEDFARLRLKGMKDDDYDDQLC

T2 sequence (Q92633 whole entry): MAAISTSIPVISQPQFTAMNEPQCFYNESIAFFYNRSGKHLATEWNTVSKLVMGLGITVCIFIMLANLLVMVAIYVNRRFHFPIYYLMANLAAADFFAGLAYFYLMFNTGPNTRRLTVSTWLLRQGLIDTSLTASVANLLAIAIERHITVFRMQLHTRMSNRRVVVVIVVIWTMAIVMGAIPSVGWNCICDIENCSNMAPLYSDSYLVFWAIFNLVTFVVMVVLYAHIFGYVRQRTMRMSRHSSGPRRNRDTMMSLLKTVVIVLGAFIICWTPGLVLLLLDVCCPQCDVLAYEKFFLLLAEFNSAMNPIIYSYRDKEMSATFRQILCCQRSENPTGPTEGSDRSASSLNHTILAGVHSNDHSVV
T2 sequence (P32121 whole entry partner): as the sequence (P32121 whole entry partner) above
T1 sequence (P41145 whole entry D138N): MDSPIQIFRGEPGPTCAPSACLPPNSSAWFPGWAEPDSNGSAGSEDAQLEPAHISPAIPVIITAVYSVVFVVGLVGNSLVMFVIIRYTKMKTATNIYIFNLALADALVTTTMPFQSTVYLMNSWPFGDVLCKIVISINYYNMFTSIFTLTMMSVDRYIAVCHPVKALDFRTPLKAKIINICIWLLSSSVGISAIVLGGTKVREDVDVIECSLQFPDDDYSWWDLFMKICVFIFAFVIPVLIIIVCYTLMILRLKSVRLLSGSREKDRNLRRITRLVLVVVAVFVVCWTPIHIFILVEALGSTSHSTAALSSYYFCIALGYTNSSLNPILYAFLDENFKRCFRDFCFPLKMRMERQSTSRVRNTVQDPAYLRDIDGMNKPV
T1 sequence (P32121 whole entry, further chain): as the sequence (P32121 whole entry partner) above

COC(=O)[C@@H]1C[C@H](O)C(=O)[C@H]2[C@@]1(C)CC[C@H]1C(=O)O[C@H](c3ccoc3)C[C@]21C [Salvinorin B]
ChaCha beta-arrestin/TEV-release GFP reporter in HEK293T cells [1]: another evolved GPCR, the kappa opioid receptor DREADD (KORD), which senses Salvinorin B

CCCCCCCC/C=C\CCCCCCCC(=O)OC[C@@H](O)COP(=O)(O)O [lysophosphatidic acid]
ChaCha beta-arrestin/TEV-release GFP reporter in HEK293T cells [2]: LPAR1, which senses the fatty acid lysophosphatidic acid

NC(=O)[C@@H]1CCCN1C(=O)[C@H](Cc1cnc[nH]1)NC(=O)[C@@H]1CCC(=O)N1 [thyrotropin-releasing hormone]
ChaCha beta-arrestin/TEV-release GFP reporter in HEK293T cells [3]: TRHR, which senses thyrotropin-releasing hormone
